Laboratory results published in paper PMC5575475 (Angewandte Chemie (International Ed. in English), 2017).
Like-named read-outs stand apart in the source and are kept apart here.

Key:
[1] = molecular target: 14‐3‐3β adapter protein (dimer) (UniProt P31946); test: fluorescence polarisation
[2] = molecular target: 14‐3‐3β adapter protein (dimer) (UniProt P31946); test: fluorescence polarisation; remark: listed apart in the source
14-3-3β [3] = molecular target: T1, 14-3-3β (Homo sapiens, UniProt P31946); type: binding
T1 sequence (P31946 1-246): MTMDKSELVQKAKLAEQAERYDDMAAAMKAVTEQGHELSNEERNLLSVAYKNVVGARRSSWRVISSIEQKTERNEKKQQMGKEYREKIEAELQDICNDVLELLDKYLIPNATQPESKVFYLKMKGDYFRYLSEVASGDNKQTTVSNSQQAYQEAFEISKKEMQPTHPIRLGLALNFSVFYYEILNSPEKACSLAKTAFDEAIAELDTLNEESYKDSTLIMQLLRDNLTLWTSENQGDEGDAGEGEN

14-3-3β [4] = molecular target: T1, 14-3-3β; type: binding; conditions: at very low and very high FGG-ERα peptide concentrations
crystal structure = molecular target: the molecule itself; test: crystal structure
[5] = FGG-ERα titration at constant Q8 concentrations

FGG‐ERα phosphopeptide (15‐mer: N‐terminal FGG motif fused to the wild‐type 14‐3‐3‐binding epitope of estrogen receptor α)
IC50 [1]: 1000 nM | IC50 [2]: 70 nM

Cucurbit[7]uril [Q7]
enhancement of apparent affinity of FGG-ERα for 14-3-3 (14-3-3β [3]; Q7 instead of Q8 (Figure 2E)): did not enhance the apparent affinity

O=C1N2CN3C(=O)N4CN5C(=O)N6CN7C(=O)N8CN9C(=O)N%10CN%11C(=O)N%12CN%13C(=O)N%14CN%15C(=O)N%16CN1C1C2N2CN%17C(=O)N(CN%18C(=O)N(CN%19C(=O)N(CN%20C(=O)N(CN%21C(=O)N(CN%22C(=O)N(CN%23C(=O)N(CN1C2=O)C%16C%15%23)C%14C%13%22)C%12C%11%21)C%10C9%20)C8C7%19)C6C5%18)C4C3%17 (stereo not shown) [Q8, Cucurbit[8]uril]
Q8 concentration at which the enhancement effect appears to saturate (14-3-3β [3]; [5]): approximately 10 μM | combinatorial inhibition at high Q8 concentrations (14-3-3β [3]; [5]): no evidence of combinatorial inhibition | effect of Q8 (14-3-3β [4]): negligible

B1: truncated 14‐3‐3βΔC variant (domain or fragment)
chain: QGSMTMDKSELVQKAKLAEQAERYDDMAAAMKAVTEQGHELSNEERNLLSVAYKNVVGARRSSWRVISSIEQKTERNEKKQQMGKEYREKIEAELQDICNDVLELLDKYLIPNATQPESKVFYLKMKGDYFRYLSEVASGDNKQTTVSNSQQAYQEAFEISKKEMQPTHPIRLGLALNFSVFYYEILNSPEKACSLAKTAFDEAIAELDTLNEESYKDSTLIMQLLRDNLTLWTSENQGDEGDAGEGEN
stoichiometry N (crystal structure): 2
